Measured values reported in US20240225970A1, “A METHOD OF REDUCING SKIN IRRITATION, COMPRISING THE APPLICATION TO THE SKIN OF AN ALPHA-BISABOLOL PREPARED BY A BIOTECHNOLOGICAL PROCESS” (Givaudan SA, priority 2020, published 2024).

System: pruritus of the scalp
Test: Double-blind, placebo-controlled clinical evaluation of scalp itching intensity with shampoos containing 0.5% bisabolol
Assay type: in vivo, human
Conditions: for itching intensity, Mean +/− SEM: scale of 0-10, washed once a day, volunteers with pruritus of the scalp; for itching intensity, Mean +/− SEM / itching intensity, Δ % mean: shampoo with 0.5% by weight bisabolol; for itching intensity, Δ % mean: D14 versus D0 (T0)
From the text: Comparison of the improvement in skin soothing effect using shampoos formulated with bio-bisabolol, chemically-produced bisabolol and plant-derived bisabolol. Samples of the bio-bisabolol prepared according to Example 1, a commercially-available synthetic bisabolol and a bisabolol derived from chamomile oil were incorporated into shampoo formulations at 0.5% by weight. An untreated sample of the shampoo was included as placebo. A double-blind, inter-individual and placebo-controlled clinical evaluation was performed on 80 volunteers (both men and women of age 18 and over). The subjects had Fitzpatrick skin types I to IV, and all suffered from pruritus of the scalp. The volunteers washed and rinsed their hair once a day and itching intensity was evaluated on days 1 and 14, using a scale of 0-10, where 0 represents no itching and 10 represents […].

Row | SMILES | itching intensity, Mean +/− SEM (D0) | itching intensity, Mean +/− SEM (D14) | itching intensity, Δ % mean [%] | reduction in scalp irritation in comparison with the placebo group (after 14 days of application, p<0.1) [%] | reduction in scalp irritation in comparison with the placebo (in words) (after 14 days of application)
1 | CC(C)=CCC[C@@](C)(O)[C@@H]1CC=C(C)CC1 [Example 1 bio-bisabolol, (−)-α-bisabolol] | 4.3 ± 0.4 | 0.3 ± 0.2 | −93 | 25 | –
2 | CC(C)=CCC[C@](C)(O)[C@@H]1CC=C(C)CC1 [Synthetic bisabolol] | 4.4 ± 0.5 | 1.3 ± 0.4 | −70 | – | did not show any significant reduction
3 | CC(C)=CCC[C@](C)(O)[C@@H]1CC=C(C)CC1 [Plant bisabolol] | 4.8 ± 0.5 | 1.5 ± 0.4 | −69 | – | did not show any significant reduction
